Patent US11266643B2, “Triaryl compounds for treatment of PD-L1 diseases” (CHEMOCENTRYX, INC., priority 2019, dated 2022)

Molecular target: human PD-L1 (Homo sapiens (Human), UniProt Q9NZQ7)
Experiment: Enzyme-Linked Immunosorbent Assay (ELISA), PD-1/PD-L1 binding
Conditions: PD-1/PD-L1 ELISA, human PD-L1 coated plates, Table 1
Outline: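 Plates coated with […] human PD-L1 overnight at 4° C, blocked, then 1:5 serial compound dilutions added with human PD-1 […] 0.31 μg/mL for 1 h at 37° C. Bound PD-1 detected with streptavidin-HRP and TMB (20 min, 37° C); absorbance read at 450 nm after H2SO4 stop.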

Sequence of human PD-L1 (Q9NZQ7 19-239): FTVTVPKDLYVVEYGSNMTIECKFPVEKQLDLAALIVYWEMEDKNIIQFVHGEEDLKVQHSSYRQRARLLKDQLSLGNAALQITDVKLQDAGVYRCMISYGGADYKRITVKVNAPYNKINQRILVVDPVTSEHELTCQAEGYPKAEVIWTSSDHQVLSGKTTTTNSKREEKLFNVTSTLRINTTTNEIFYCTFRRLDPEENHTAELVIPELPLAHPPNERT

First: COc1cc(-c2cccc(-c3cccc(NC(=O)c4ccc(C(=O)NCC(=O)O)cn4)c3C)c2C)cc(F)c1CN [Example 1.305]
Second: COc1cc(-c2cccc(-c3cccc(NC(=O)c4ccc(C(=O)O)cn4)c3C)c2C)cc(F)c1CN [Example 1.352]
The IC50 of the first is lower: less than 10 nM for the first, 10 to 1000 nM for the second. The first is the more potent here.

First: COc1cc(-c2cccc(-c3cccc(NC(=O)c4ccc(C(=O)N(C)C)cn4)c3C)c2C)cc(F)c1CN [Example 1.306]
Second: COC(=O)c1ccc(C(=O)Nc2cccc(-c3cccc(-c4cc(F)c(CN)c(OC)c4)c3C)c2C)nc1 [Example 1.353]
The IC50 of the first is lower: less than 10 nM for the first, 10 to 1000 nM for the second.

COc1cc(-c2cccc(-c3cccc(NC(=O)c4cnc(CC(N)=O)cn4)c3C)c2C)cc(F)c1CN [Example 1.307] and COc1cc(-c2cccc(-c3cccc(NC(=O)c4cnc(CC(=O)O)cn4)c3C)c2C)cc(F)c1CN [Example 1.309] cannot be ordered by IC50: less than 10 nM for the first, less than 10 nM for the second.

First: COc1cc(-c2cccc(-c3cccc(NC(=O)c4ccc(CC(N)=O)cn4)c3C)c2C)cc(F)c1CN [Example 1.310]
Second: COc1cc(-c2cccc(-c3cccc(NC(=O)c4ccc(CC(=O)O)cn4)c3C)c2C)cc(F)c1CN [Example 1.335]
The IC50 of the first is lower: less than 10 nM for the first, 10 to 1000 nM for the second. The first is the more potent here.

COc1cc(-c2cccc(-c3cccc(NC(=O)c4cccn(C)c4=O)c3C)c2C)cc(F)c1CN [Example 1.311] and COC(=O)Cc1ccc(C(=O)Nc2cccc(-c3cccc(-c4cc(F)c(CN)c(OC)c4)c3C)c2C)nc1 [Example 1.331] cannot be ordered by IC50: less than 10 nM for the first, less than 10 nM for the second.

COc1cc(-c2cccc(-c3cccc(NC(=O)C4CN(CC(=O)O)CCO4)c3C)c2C)cc(F)c1CN (stereo not shown) [Example 1.314] and COc1cc(-c2cccc(-c3cccc(NC(=O)C4CN(C)CCO4)c3C)c2C)cc(F)c1CN (stereo not shown) [Example 1.315] fall in the same range of IC50: 10 to 1000 nM for the first, 10 to 1000 nM for the second.

First: COc1cc(-c2cccc(-c3cccc(Nc4nccc5cccnc45)c3C)c2C)cc(F)c1CN1CC(C(=O)O)C1 [Example 1.318]
Second: COc1cc(-c2cccc(-c3cccc(NC(=O)c4ccnc(C)n4)c3C)c2C)cc(F)c1CN1CC(C(=O)O)C1 [Example 1.321]
The IC50 of the first is higher: 10 to 1000 nM for the first, less than 10 nM for the second.

COc1cc(-c2cccc(-c3cccc(NC(=O)[C@H]4COCCN4)c3C)c2C)cc(F)c1CN [Example 1.319] and COc1cc(-c2cccc(-c3cccc(NC(=O)C4CNCCO4)c3C)c2C)cc(F)c1CN (stereo not shown) [Example 1.323] fall in the same range of IC50: 10 to 1000 nM for the first, 10 to 1000 nM for the second.

COc1cc(-c2cccc(-c3cccc(NC(=O)c4cc(N)ncn4)c3C)c2C)cc(F)c1CN1CC(C(=O)O)C1 [Example 1.320] and COc1cc(-c2cccc(-c3cccc(NC(=O)c4cnc(N)cn4)c3C)c2C)cc(F)c1CN1CC(C(=O)O)C1 [Example 1.332] cannot be ordered by IC50: less than 10 nM for the first, less than 10 nM for the second.

COc1cc(-c2cccc(-c3cccc(NC(=O)c4cnc(C(=O)O)cn4)c3C)c2C)cc(F)c1CN [Example 1.322] and COc1cc(-c2cccc(-c3cccc(NC(=O)c4cnc(CO)cn4)c3C)c2C)cc(F)c1CN1CC(C(=O)O)C1 [Example 1.326] cannot be ordered by IC50: less than 10 nM for the first, less than 10 nM for the second.

COc1cc(-c2cccc(-c3cccc(NC(=O)C4CNCCO4)c3C)c2C)cc(F)c1CNCCO (stereo not shown) [Example 1.324] and COc1cc(-c2cccc(-c3cccc(NC(=O)C4CCCCO4)c3C)c2C)cc(F)c1CN (stereo not shown) [Example 1.363] fall in the same range of IC50: 10 to 1000 nM for the first, 10 to 1000 nM for the second.

First: COc1cc(-c2cccc(-c3cccc(NC(=O)c4cncc(N)n4)c3C)c2C)cc(F)c1CN1CC(C(=O)O)C1 [Example 1.327]
Second: COc1cc(-c2cccc(-c3cccc(NC(=O)c4ccnc(N)n4)c3C)c2C)cc(F)c1CN1CC(C(=O)O)C1 [Example 1.347]
The IC50 of the first is lower: less than 10 nM for the first, 10 to 1000 nM for the second.

COc1cc(-c2cccc(-c3cccc(NC(=O)c4ccc(C(=O)O)cn4)c3C)c2C)cc(F)c1CNCCO [Example 1.333] and COC(=O)c1ccc(C(=O)Nc2cccc(-c3cccc(-c4cc(F)c(CNCCO)c(OC)c4)c3C)c2C)nc1 [Example 1.334] fall in the same range of IC50: 10 to 1000 nM for the first, 10 to 1000 nM for the second.

Compared with COc1cc(-c2cccc(-c3cccc(NC(=O)C4CCCO4)c3C)c2C)cc(F)c1CN[C@@](C)(CO)C(=O)O (stereo partly shown) [Example 1.336], COc1cc(-c2cccc(-c3cccc(NC(=O)C4CCCO4)c3C)c2C)cc(F)c1CN1CC(C(=O)O)C1 (stereo not shown) [Example 1.341] is lower in IC50: 1000 to 10000 nM for the first, 10 to 1000 nM for the second. The second is the more potent here.

COc1cc(-c2cccc(-c3cccc(NC(=O)c4ccncn4)c3C)c2C)cc(F)c1CN1CC(O)C1 [Example 1.337] and COc1cc(-c2cccc(-c3cccc(NC(=O)c4ccncn4)c3C)c2C)cc(F)c1CN1CC(C)(C(=O)O)C1 [Example 1.340] cannot be ordered by IC50: less than 10 nM for the first, less than 10 nM for the second.

COc1cc(-c2cccc(-c3cccc(NC(=O)c4ccncn4)c3C)c2C)cc(F)c1CNCCO [Example 1.338] and COc1cc(-c2cccc(-c3cccc(NC(=O)c4ccncn4)c3C)c2C)cc(F)c1CNCCCC(=O)O [Example 1.345] cannot be ordered by IC50: less than 10 nM for the first, less than 10 nM for the second.

Compared with COc1cc(-c2cccc(-c3cccc(NC(=O)c4ccncn4)c3C)c2C)cc(F)c1CNCC(=O)O [Example 1.339], COc1cc(-c2cccc(-c3cccc(NC(=O)c4ccccn4)c3C)c2C)cc(F)c1CN1CC(C)(C(=O)O)C1 [Example 1.360] is lower in IC50: 10 to 1000 nM for the first, less than 10 nM for the second. The second is the more potent here.

First: COc1cc(-c2cccc(-c3cccc(NC(=O)c4ccc(CO)cn4)c3C)c2C)cc(F)c1CN1CC(C(=O)O)C1 [Example 1.342]
Second: COc1cc(-c2cccc(-c3cccc(NC(=O)c4ccc(F)cn4)c3C)c2C)cc(F)c1CN1CC(C(=O)O)C1 [Example 1.359]
The IC50 of the first is lower: less than 10 nM for the first, 10 to 1000 nM for the second.

COc1cc(-c2cccc(-c3cccc(NC(=O)c4ccccn4)c3C)c2C)cc(F)c1C(C)N (stereo not shown) [Example 1.344] and COc1cc(-c2cccc(-c3cccc(NC(=O)c4ccccn4)c3C)c2C)cc(F)c1CN1CCC[C@@H](C(=O)O)C1 [Example 1.354] fall in the same range of IC50: 10 to 1000 nM for the first, 10 to 1000 nM for the second.

COc1cc(-c2cccc(-c3cccc(NC(=O)c4nccs4)c3C)c2C)cc(F)c1CN1CC(C(=O)O)C1 [Example 1.346] and COc1cc(-c2cccc(-c3cccc(NC(=O)c4ncco4)c3C)c2C)cc(F)c1CN1CC(C(=O)O)C1 [Example 1.349] fall in the same range of IC50: 10 to 1000 nM for the first, 10 to 1000 nM for the second.

COc1cc(-c2cccc(-c3cccc(NC(=O)c4ccccn4)c3C)c2F)cc(F)c1CN1CC(C(=O)O)C1 [Example 1.348] and COc1cc(-c2cccc(-c3cccc(NC(=O)c4ccccn4)c3C)c2C#N)cc(F)c1CN1CC(C(=O)O)C1 [Example 1.356] fall in the same range of IC50: 10 to 1000 nM for the first, 10 to 1000 nM for the second.

First: COc1cc(-c2cccc(-c3cccc(NC(=O)C4CCCCN4)c3C)c2C)cc(F)c1CN1CC(C(=O)O)C1 (stereo not shown) [Example 1.350]
Second: COc1cc(-c2cccc(-c3cccc(NC(=O)c4ncc(C)cn4)c3C)c2C)cc(F)c1CN1CC(C(=O)O)C1 [Example 1.364]
The IC50 of the first is higher: 1000 to 10000 nM for the first, 10 to 1000 nM for the second. The second is the more potent here.

COc1ccc(C(=O)Nc2cccc(-c3cccc(-c4cc(F)c(CN5CC(C(=O)O)C5)c(OC)c4)c3C)c2C)nc1 [Example 1.351] and COc1cc(-c2cccc(-c3cccc(NC(=O)c4cnccn4)c3C)c2C)cc(F)c1CN1CC(C(=O)O)C1 [Example 1.357] cannot be ordered by IC50: less than 10 nM for the first, less than 10 nM for the second.

COc1cc(-c2cccc(-c3cccc(NC(=O)c4ccccn4)c3C)c2C)cc(F)c1CN1CCC[C@H](C(=O)O)C1 [Example 1.355] and COc1cc(-c2cccc(-c3cccc(NC(=O)c4ccccn4)c3C)c2C)cc(F)c1CN1CCC(C(=O)O)CC1 [Example 1.358] fall in the same range of IC50: 10 to 1000 nM for the first, 10 to 1000 nM for the second.

COc1cc(-c2cccc(-c3cccc(NC(=O)c4ccccn4)c3C)c2C)cc(F)c1CN1CCC2(C1)NC(=O)NC2=O (stereo not shown) [Example 1.362] showed an IC50 of 10 to 1000 nM.
